{"source": "paper PMC9530166", "about": "“Allosteric regulation of glycogen breakdown by the second messenger cyclic di-GMP” (Nature Communications, 2022)", "system": "His6-GlgX", "assay": "DRaCALA with [32P]-c-di-GMP, wild-type GlgX", "assay_type": "binding, Streptomyces venezuelae", "procedure": "Fig. 1 GlgX binds c-di-GMP. a Quantification of c-di-GMP in S. venezuelae cell extracts using LC-MS/MS. Cells were harvested during late vegetative growth (8–10 h), transition to sporulation (12–16 h), and sporulation (18–20 h). Data are presented as the mean of biological replicates ±SD (n = 3). […] Source data are provided in the Source data file. c [^32P]-c-di-GMP binds to GlgX in DRaCALA assay indicated by dark spots in the center of the nitrocellulose membrane. For competition, excess (100 µM) of unlabeled c-di-GMP, c-di-AMP, or GTP was added to the reaction containing [^32P]-c-di-GMP and GlgX.\nTo determine if the interaction between Vnz29170 (herein called GlgX) and c-di-GMP is direct, we purified an N-terminally His6-tagged GlgX protein and performed nano differential scanning fluorimetry (nanoDSF) thermal shift assays. […] In addition, we used differential radial capillary action of ligand assays (DRaCALA), which allows visualization of protein-bound radiolabeled ligand as a central spot after the application of the protein-ligand mix onto nitrocellulose. Using DRaCALA we confirmed that GlgX from S. venezuelae binds ^32P-labeled c-di-GMP.\nFor DRaCALA assays, purified His6-GlgX (15 μg) was mixed with 0.5 μl undiluted [^32P]-c-di-GMP (42 nM) (Hartmann Analytic GmbH, Braunschweig) in binding buffer (25 mM Tris pH 8; 150 mM NaCl; 2.5% (v/v) glycerol; 5 mM MgCl2) and the reaction was incubated at rt for 5 min. For competition assays, 100 μM nonlabeled nucleotides were added to the samples and incubated at rt for 5 min prior to the addition of [^32P]-c-di-GMP. Reactions (10 μl) were spotted on the same nitrocellulose membrane (Roth), air dried for 10 min and analyzed via phosphorimaging.", "data": [{"smiles": "Nc1nc2c(ncn2[C@@H]2O[C@@H]3CO[P@](=O)(O)O[C@H]4[C@@H](O)[C@H](n5cnc6c(=O)[nH]c(N)nc65)O[C@@H]4CO[P@](=O)(O)O[C@H]3[C@H]2O)c(=O)[nH]1", "note": "[c-di-GMP, bis-(3′−5′)-cyclic diguanosine monophosphate]", "values": [{"measurement": "binding of 32P-labeled c-di-GMP in DRaCALA", "setting": "15 µg His6-GlgX, [32P]-c-di-GMP", "value": "binds"}, {"measurement": "competition with 32P-c-di-GMP for binding to GlgX", "setting": "excess (100 µM) unlabeled nucleotide", "value": "competed"}]}]}
